The values below come from patent publication US6689362B1, “Method for treating T-lineage leukemias and lymphomas using a CD7-specific monoclonal antibody (TXU-7) linked to the pokeweed antiviral protein (PAP)” (priority 1997, dated 2004).

The test system of the test is clinical HIV-1 isolates (AT-101, AT-328, AT-332). Put plainly: Hu-PBL-SCID mouse model of human AIDS (HIV-PCR and HIV-culture). In kind it is in vivo.
Setting [1] is: 1 mg/ml in water, average 200 mg/kg/day.

The structures appear in SMILES notation. Where “and” joins values, the source holds several entries; their conditions need not be identical. Identical values can stand only once.

In the case of `Cc1cn([C@H]2C[C@H](N=[N+]=[N-])[C@@H](CO)O2)c(=O)[nH]c1=O` [AZT, zidovudine], under setting [1], the “Cx+” value was 4/8; the “PCR+” value is 4/10; the “PCR+ Cx+” value is 4 and 4/8; the “PCR+ CxND” value is 0/2. Further, under setting [1], the “PCR+ Cx−” value is 3 and 4/8; the “PCR− Cx−” value is recorded as 0/8; the “mice tested HIV-1 negative” value is 3 of 10. Besides, the “gp120 on CD7 cells from peritoneal cavities (flow cytometry)” value (treated Hu-PBL-SCID mice) is recorded as “presence of gp120 on CD7 cells”.
